Source: ChEMBL document CHEMBL2417501, “Synthesis of 4-aminoquinoline-pyrimidine hybrids as potent antimalarials and their mode of action studies” (Eur J Med Chem, 2013)

Tests used:
[1] = Selectivity index, ratio of CC50 for MDCK cells to IC50 for chloroquine-resistant Plasmodium falciparum Dd2; type: functional
Sindbis virus = assay: Antiviral activity against Sindbis virus infected in african green monkey Vero cells assessed as reduction of virus-induced cytopathogenicity; type: functional, organism-based
Punta Toro virus = assay: Antiviral activity against […] infected in african green monkey Vero cells assessed as reduction of virus-induced cytopathogenicity; type: functional, organism-based
Plasmodium falciparum = assay: Antimalarial activity against chloroquine-resistant Plasmodium falciparum Dd2; type: functional, organism-based
[2] = Cytotoxicity against human HeLa cells; type: cell-based
Felid alphaherpesvirus 1 = assay: Antiviral activity against feline herpesvirus infected in cat CRFK cells assessed as reduction of virus-induced cytopathogenicity by MTS assay; type: functional, organism-based; conditions: Felid alphaherpesvirus 1, CRFK
[3] = Cytotoxicity against cat CRFK cells; type: cell-based, Felis catus; conditions: crfk
Heme [4] = assay: Binding affinity to monomeric heme (unknown origin) in HEPES buffer at pH 7.4 at 1 to 25 uM by UV-visible spectrophotometry
Influenza A virus [5] = assay: Antiviral activity against influenza A virus H1N1 subtype infected in dog MDCK cells assessed as reduction of virus-induced cytopathogenicity by MTS assay; type: functional, organism-based
Influenza B virus = assay: Antiviral activity against influenza B virus infected in dog MDCK cells assessed as reduction of virus-induced cytopathogenicity by MTS assay; type: functional, organism-based
Cytomegalovirus [6] = assay: Antiviral activity against Cytomegalovirus AD-169 infected in human HEL cells assessed as reduction of plaque formation; type: functional, organism-based; conditions: Human betaherpesvirus 5, AD-169, HEL
Coxsackievirus [7] = assay: Antiviral activity against Coxsackievirus B4 infected in human HeLa cells assessed as reduction of virus-induced cytopathogenicity; type: functional, organism-based
DNA [8] = assay: Binding affinity to calf thymus DNA at 30 uM by fluorescence assay; type: nucleic-acid assay; conditions: Bos taurus
Feline coronavirus = assay: Antiviral activity against Feline coronavirus infected in cat CRFK cells assessed as reduction of virus-induced cytopathogenicity by MTS assay; type: functional, organism-based; conditions: Alphacoronavirus 1, CRFK
Human alphaherpesvirus 3 [9] = assay: Antiviral activity against TK-positive Varicella-zoster virus OKA infected in human HEL cells assessed as reduction of plaque formation; type: functional, cell-based; conditions: Human alphaherpesvirus 3, strain Oka vaccine
Human alphaherpesvirus 2 = assay: Antiviral activity against Herpes simplex virus-2 G infected in human HEL cells assessed as reduction of virus-induced cytopathogenicity; type: functional, organism-based; conditions: Human alphaherpesvirus 2, strain G
[10] = Cytotoxicity against african green monkey Vero cells; type: cell-based; conditions: chlorocebus sabaeus
[11] = Inhibition of beta-hematin formation at 1 mg/ml; type: functional
Influenza A virus [12] = assay: Antiviral activity against influenza A virus […] subtype infected in dog MDCK cells assessed as reduction of virus-induced cytopathogenicity by MTS assay; type: functional, organism-based; conditions: read-out: EC50
Human alphaherpesvirus 1 [13] = assay: Antiviral activity against TK-negative Herpes simplex virus 1 KOS infected in human HEL cells assessed as reduction of virus-induced cytopathogenicity; type: functional, organism-based; conditions: Human alphaherpesvirus 1, KOS
Coxsackievirus [14] = assay: Antiviral activity against Coxsackievirus B4 infected in african green monkey Vero cells assessed as reduction of virus-induced cytopathogenicity; type: functional, organism-based
Human alphaherpesvirus 1 [15] = assay: Antiviral activity against Herpes simplex virus-1 KOS infected in human HEL cells assessed as reduction of virus-induced cytopathogenicity; type: functional, organism-based; conditions: Human alphaherpesvirus 1, KOS
Heme [16] = assay: Binding affinity to monomeric heme (unknown origin) in MES buffer at pH 5.6 at 1 to 25 uM by UV-visible spectrophotometry
[17] = test system: Vesicular stomatitis virus; assay: Antiviral activity against Vesicular stomatitis virus infected in human HeLa cells assessed as reduction of virus-induced cytopathogenicity; type: functional, organism-based
[18] = test system: Vesicular stomatitis virus; assay: Antiviral activity against Vesicular stomatitis virus infected in human HEL cells assessed as reduction of virus-induced cytopathogenicity; type: functional, organism-based
DNA [19] = assay: Binding affinity to calf thymus DNA assessed as compound DNA intercalation measured as hypochromatic shift at 255 nm at 30 uM by UV-visible spectrophotometry; type: nucleic-acid assay; conditions: Bos taurus
[20] = test system: Mammalian orthoreovirus 1; assay: Antiviral activity against Reovirus-1 infected in african green monkey Vero cells assessed as reduction of virus-induced cytopathogenicity; type: functional, organism-based; conditions: Mammalian orthoreovirus 1, Vero
[21] = (§1) Cytotoxicity against MDCK cells assessed as cell viability after 4 days by MTS assay; type: cell-based, Canis lupus familiaris; conditions: dog, MDCK cells
MDCK = assay: as §1; type: cell-based, Canis lupus familiaris; conditions: dog, mdck, 96 h
mu-oxodimeric heme = assay: Binding affinity to mu-oxodimericheme (unknown origin) in phosphate buffer at pH 5.8 at 1 to 25 uM by UV-visible spectrophotometry
Escherichia coli = assay: Binding affinity to Escherichia coli pUC18 DNA at 30 uM by fluorescence assay
Cytomegalovirus [22] = assay: Antiviral activity against Cytomegalovirus Davis infected in human HEL cells assessed as reduction of plaque formation; type: functional, organism-based; conditions: Human betaherpesvirus 5, Davis
[23] = test system: Respiratory syncytial virus; assay: Antiviral activity against Respiratory syncytial virus infected in human HeLa cells assessed as reduction of virus-induced cytopathogenicity; type: functional, organism-based
Human respirovirus 3 = assay: Antiviral activity against Parainfluenza-3 virus infected in african green monkey Vero cells assessed as reduction of virus-induced cytopathogenicity; type: functional, organism-based; conditions: Human respirovirus 3, Vero
Human alphaherpesvirus 3 [24] = assay: Antiviral activity against […] Varicella-zoster virus 07-1 infected in human HEL cells assessed as reduction of plaque formation; type: functional, organism-based; conditions: Human alphaherpesvirus 3, 07-1, HEL
DNA [25] = assay: Binding affinity to calf thymus DNA assessed as change in melting temperature at 30 uM by UV-visible spectrophotometry; type: nucleic-acid assay; conditions: Bos taurus
[26] = Cytotoxicity against human HEL cells; type: cell-based
DNA [27] = assay: Binding affinity to calf thymus DNA assessed as compound DNA intercalation measured as hypochromatic shift at 330 nm at 30 uM by UV-visible spectrophotometry; type: nucleic-acid assay; conditions: Bos taurus

Cc1nc(NCCCCNc2ccnc3cc(Cl)ccc23)nc(-c2ccccc2)c1C(=O)OC(C)C
Ratio CC50/IC50 [1]: 3.92 | EC50 (Sindbis virus): > 4 µM | EC50 (Punta Toro virus): > 4 µM | IC50 (Plasmodium falciparum): 0.153 µM | MCC [2]: > 100 µM | EC50 (Felid alphaherpesvirus 1): > 20 µM | CC50 [3]: 50.6 µM | log K (Heme [4]): 4.96 | EC50 (Influenza A virus [5]): > 0.16 µM | EC50 (Influenza B virus): > 0.16 µM | EC50 (Cytomegalovirus [6]): > 4 µM | EC50 (Coxsackievirus [7]): > 100 µM | log K (DNA [8]): 5.76 | EC50 (Feline coronavirus): > 20 µM | EC50 (Human alphaherpesvirus 3 [9]): 4 µM | EC50 (Human alphaherpesvirus 2): > 4 µM | MCC [10]: 20 µM | inhibition [11]: 72% | EC50 (Influenza A virus [12]): > 0.16 µM | EC50 (Human alphaherpesvirus 1 [13]): > 4 µM | EC50 (Coxsackievirus [14]): > 4 µM | EC50 (Human alphaherpesvirus 1 [15]): > 4 µM | log K (Heme [16]): 4.58 | EC50 [17]: > 100 µM | EC50 [18]: > 4 µM | Activity (DNA [19]): 112% | EC50 [20]: > 4 µM | MCC at 96 h [21]: 800 nM | CC50 (MDCK): 0.6 µM | log K (mu-oxodimeric heme): 5.72 | log K (Escherichia coli): 5.73 | EC50 (Cytomegalovirus [22]): > 4 µM | EC50 [23]: > 100 µM | EC50 (Human respirovirus 3): > 4 µM | EC50 (Human alphaherpesvirus 3 [24]): > 4 µM | ΔTm (DNA [25]): 7.5 °C | MCC [26]: 20 µM | Activity (DNA [27]): 37%
